These results are taken from US20080171740A1, “Chemical Compounds” (SMITHKLINE BEECHAM CORPORATION, priority 2004, published 2008).

Read-outs that look alike come from different tables or passages of the source. Where only a bound is given, the exact number is not on record here.

Common to all, as to assay type: cell-based
One data set addresses T1, CXCR4 receptor (Homo sapiens, UniProt P61073).
T1 construct: expressed in transfected cells; host or cells: HEK-293 cells (stably expressing human macrophage scavenging receptor) transduced with human CXCR4 BacMam and Gqi5 BacMam
Kind of data set: Functional FLIPR assay (block of SDF-1 alpha induced [Ca2+]i change). The note with it: HEK-293 cells with human CXCR4 BacMam and Gqi5 BacMam; antagonism of SDF-1 alpha; read-out: Functional assay (pIC50) (converted). On the procedure: Human embryonic kidney (HEK-293) cells were maintained and harvested as described above. Cells were plated in 96-well, black clear bottom, poly-lysine coated plates at a concentration of 40,000 cells per well in a final volume of 100 ul containing human CXCR4 BacMam (MOI=25) and Gqi5 BacMam (MOI=12.5). The cells were incubated at 37° C., 5% CO2, 95% humidity for 24 h to allow for protein expression.
After the required incubation time the cells were washed once with 50 ul of fresh serum-free DMEM/F12 media containing probenicid. 50 ul of dye solution was then added to the cells (Calcium Plus Assay Kit Dye; Molecular Devices) was dissolved in 200 ml of the above probenicid/BSA containing media and incubated for 1 h. Cell plates were transferred to a Fluorometric Imaging Plate Reader (FLIPR). Upon addition the effect of the compounds on the change in [Ca^2+]i was examined to determine if the compounds were agonists or antagonists (ability to block SDF-1 alpha activity) at the CXCR4 receptor. IC50 values are determined and pKb values are calculated using the Leff and Dougall equation: KB=IC50/((2+([agonist]/EC50̂b)̂1/b -1) Where IC50 is that defined by the antagonist concentration-response curve [agonist] is the EC80 concentration of agonist used EC50 is that defined by the agonist concentration-response curve b is the slope of the agonist concentration-response curve.

For data set [1], the system named is HIV-1 IIIB strain, T-tropic (CXCR4 utilizing). As to the kind of experiment: HOS HIV-1 infectivity assay. As for the experimental part: (§1) Compounds were profiled against two HIV-1 viruses, the M-tropic (CCR5 utilizing) Ba-L strain and the T-tropic (CXCR4 utilizing) IIIB strain. Both viruses were propagated in human peripheral blood lymphocytes. Compounds were tested for there ability to block infection of the HOS cell line (expressing hCXCR4/hCCR5/hCD4/pHIV-LTR-luciferase) by either HIV-1 Ba-L or HIV-1 IIIB. Compound cytotoxicity was also examined in the absence of virus addition.
(§2) HOS cells (expressing hCXCR4/hCCR5/hCD4/pHIV-LTR-luciferase) were harvested and diluted in Dulbeccos modified Eagles media supplemented with 2% FCS and non-essential amino acid to a concentration of 60,000 cells/ml. The cells were plated into 96-well plates (100 ul per well) and the plates were placed in a tissue culture incubator (37° C.; 5% CO2/95% air) for a period of 24 h.
(§3) Subsequently, 50 ul of the desired drug solution (4 times the final concentration) was added to each well and the plates were returned to the tissue culture incubator (37° C.; 5% CO2/95% air) for 1 h. Following this incubation 50 ul of diluted virus was added to each well (approximately 2 million RLU per well of virus). The plates were returned to the tissue culture incubator (37° C.; 5% CO2/95% air) and were incubated for a further 96 h.
(§4) Following this incubation the endpoint for the virally infected cultures was quantified following addition of Steady-Glo Luciferase assay system reagent (Promega, Madison, Wis.). Cell viability or non-infected cultures was measured using a CellTiter-Glo luminescent cell viability assay system (Promega, Madison, Wis.). All luminescent readouts are performed on a Topcount luminescence detector (Packard, Meridien, Conn.).

In data set [2] the test system is HIV-1 gp160 (HXB2 strain) mediated fusion with HOS (hCXCR4/hCCR5/hCD4/pHIV-LTR-luciferase) cells. Kind of data set: Cell/cell fusion assay (HEK-293 expressing HIV-1 tat, rev, gp160 with HOS hCXCR4/hCCR5/hCD4/pHIV-LTR-luciferase cells). The following applies: Homo sapiens, HEK293; luciferase readout after 24 h; read-out: Fusion assay (pIC50) (converted). The source says: The complete coding sequences of HIV-1 tat (GenBank Accession No. X07861) and rev (GenBank Accession No. M34378) were cloned into pcDNA3.1 expression vectors containing G418 and hygromycin resistance genes, respectively. The complete coding sequence of the HIV-1 (HXB2 strain) gp160 envelope gene (nucleotide bases 6225-8795 of GenBank Accession No. K03455) was cloned into plasmid pCRII-TOPO. The three HIV genes were additionally inserted into the baculovirus shuttle vector, pFastBacMam1, under the transcriptional control of the CMV promoter. A construction of the pHIV-I LTR containing mutated NFkB sequences linked to the luciferase reporter gene was prepared by digesting pcDNA3.1, containing the G418 resistance gene, with Nru I and Bam HI to remove the CMV promoter. LTR-luc was then cloned into the Nru I/Bam HI sites of the plasmid vector. Plasmid preparations were performed after the plasmids were amplified in Escherichia coli strain DH5-alpha. The fidelity of the inserted sequences was confirmed by double-strand nucleotide sequencing using an ABI Prism Model 377 automated sequencer.
Recombinant BacMam baculoviruses were constructed from pFastBacMam shuttle plasmids by using the bacterial cell-based Bac-to-Bac system. Viruses were propagated in Sf9 (Spodoptera frugiperda) cells cultured in Hink's TNM-FH Insect media supplemented with 10% (v/v) fetal bovine serum and 0.1% (v/v) pluronic F-68 according to established protocols.
Human osteosarcoma (HOS) cells that naturally express human CXCR4 were transfected with human CCR5, human CD4 and the pHIV-LTR-luciferase plasmid using FuGENE 6 transfection reagent. Single cells were isolated and grown under selection condition in order to generate a stable HOS (hCXCR4/hCCR5/hCD4/pHIV-LTR-luciferase) clonal cell line. The cells were maintained in Dulbeccos modified Eagles media supplemented with 10% fetal calf serum (FCS), G418 (400 ug/ml), puromycin (1 ug/ml), mycophenolic acid (40 ug/ml), xanthine (250 ug/ml) and hypoxanthine (13.5 ug/ml) to maintain a selection pressure for cells expressing the LTR-luciferase, hCCR5 and hCD4, respectively. Human embryonic kidney (HEK-293) cells stably transfected to express the human macrophage scavenging receptor (Class A, type 1; GenBank Accession No. D90187), were maintained in DMEM/F-12 media (1:1) supplemented with 10% FCS and 1.5 ug/ml puromycin. The expression of this receptor by the HEK-293 cells enhances their ability to stick to tissue culture treated plasticware.
HEK-293 cells were harvested using enzyme-free cell dissociation buffer. The cells were resuspended in DMEM/F-12 media supplemented with 10% FCS and 1.5 ug/ml and counted. Tranductions were performed by direct addition of BacMam baculovirus containing insect cell media to cells. The cells were simultaneously transduced with BacMam baculovirus expressing HIV-1 tat, HIV-1 rev and HIV-1 gp160 (from the HXB2 HIV strain). Routinely an MOI of 10 of each virus was added to the media containing the cells. 2 mM butyric acid was also added to the cells at this stage to increase protein expression in transduced cells. The cells were subsequently mixed and seeded into a flask at 30 million cells per T225. The cells were incubated at 37° C., 5% CO2, 95% humidity for 24 h to allow for protein expression.
HEK and HOS cells were harvested in DMEM/F-12 media containing 2% FCS and DMEM media containing 2% FCS, respectively, with no selection agents added. Compounds were plated as 1 ul spots in 100% DMSO on a 96-well CulturPlate plates. HOS cells (50 ul) were added first to the wells, followed immediately by the HEK cells (50 ul). The final concentration of each cell type was 20,000 cells per well. Following these additions, the cells were returned to a tissue culture incubator (37° C.; 5% CO2/95% air) for an additional 24 h.
Following the 24 h incubation, total cellular luciferase activity was measured using the LucLite Plus assay kit (Packard, Meridien, Conn.). […]

Data set [3] is described as follows: Compound cytotoxicity in the absence of virus (CellTiter-Glo). The following applies: human; non-infected HOS cultures, cell viability; read-out: Cytotox (pIC50) (converted). As for the experimental part: as §1, §2, §3, §4
Where [4] appears, read: Human immunodeficiency virus 1, IIIB, HOS HIV anti-infectivity assay, strain not named in Table 2, read-out: Activity Level.
Where [5] appears, read: Human immunodeficiency virus 1, HOS cells, HIV-1 IIIB, 96 h, luciferase, read-out: HOS (3B).

T1 sequence (P61073 whole entry): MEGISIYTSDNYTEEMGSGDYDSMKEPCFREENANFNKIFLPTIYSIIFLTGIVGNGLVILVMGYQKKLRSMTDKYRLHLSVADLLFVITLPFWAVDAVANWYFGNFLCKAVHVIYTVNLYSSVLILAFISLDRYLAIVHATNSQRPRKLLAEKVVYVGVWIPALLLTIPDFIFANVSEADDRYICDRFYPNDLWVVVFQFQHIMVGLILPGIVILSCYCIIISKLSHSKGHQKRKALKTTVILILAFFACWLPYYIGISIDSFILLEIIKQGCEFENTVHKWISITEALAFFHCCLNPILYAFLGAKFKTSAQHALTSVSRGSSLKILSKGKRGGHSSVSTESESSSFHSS

Consider `Cc1cccn2cc(CN(CCCCN)C3CCCc4cccnc43)nc12` (centres unmarked) [Example 2, N-[(8-Methylimidazo[1,2-a]pyridin-2-yl)methyl]-N-(5,6,7,8-tetrahydro-8-quinolinyl)-1,4-butanediamine], for which the IC50 on CXCR4 receptor was 53.7 nM; in data set [1] (Human immunodeficiency virus 1, IIIB, HOS, 96 h, read-out: HOS (3B) (μM)) it was 0.023 µM; in data set [1] (Human immunodeficiency virus 1, IIIB, read-out: Activity Level), less than 0.1 µM; in data set [2], 324 nM. The IC50 at 96 h in data set [3] is greater than 100000 nM.

For `Cc1ccn2cc(CN(CCCCN)C3CCCc4cccnc43)nc2c1` (centres unmarked) [Example 3, N-[(7-Methylimidazo[1,2-a]pyridin-2-yl)methyl]-N-(5,6,7,8-tetrahydro-8-quinolinyl)-1,4-butanediamine], the IC50 at CXCR4 receptor is 759 nM; in data set [1] (setting [4]), 0.1 to 0.5 µM; in data set [1] (setting [5]), 0.223 µM; in data set [2], 813 nM. The IC50 at 96 h in data set [3] was greater than 100000 nM.

For `Cc1ccc2nc(CN(CCCCN)C3CCCc4cccnc43)cn2c1` (centres unmarked) [Example 4, N-[(6-Methylimidazo[1,2-a]pyridin-2-yl)methyl]-N-(5,6,7,8-tetrahydro-8-quinolinyl)-1,4-butanediamine], the IC50 was 52.5 nM on CXCR4 receptor, less than 0.1 µM in data set [1] (setting [4]), 0.057 µM in data set [1] (setting [5]) and 97.7 nM in data set [2]. In addition, in data set [3], the IC50 at 96 h is greater than 100000 nM.

Turning to `Cc1cccc2nc(CN(CCCCN)C3CCCc4cccnc43)cn12` (centres unmarked) [Example 5, N-[(5-Methylimidazo[1,2-a]pyridin-2-yl)methyl]-N-(5,6,7,8-tetrahydro-8-quinolinyl)-1,4-butanediamine], the IC50 was 12 nM on CXCR4 receptor, less than 0.1 µM in data set [1] (setting [4]), 0.017 µM in data set [1] (setting [5]) and 39.8 nM in data set [2]. The IC50 at 96 h in data set [3] was greater than 100000 nM.

For `NCCCCN(Cc1cn2ccc(C(F)(F)F)cc2n1)C1CCCc2cccnc21` (centres unmarked) [Example 6, N-(5,6,7,8-Tetrahydro-8-quinolinyl)-N-{[7-(trifluoromethyl)imidazo[1,2-a]pyridin-2-yl]methyl}-1,4-butanediamine], the IC50 is 2190 nM at CXCR4 receptor, 0.5 to 10 µM in data set [1] (setting [4]), 1.4 µM in data set [1] (setting [5]) and 4470 nM in data set [2]. Besides, the IC50 at 96 h in data set [3] was greater than 100000 nM.

Take `NCCCCN(Cc1cn2cc(C(F)(F)F)ccc2n1)C1CCCc2cccnc21` (centres unmarked) [Example 7, N-(5,6,7,8-Tetrahydro-8-quinolinyl)-N-{[6-(trifluoromethyl)imidazo[1,2-a]pyridin-2-yl]methyl}-1,4-butanediamine]: the IC50 at CXCR4 receptor is 63.1 nM; in data set [1] (setting [4]) it was 0.1 to 0.5 µM; in data set [1] (setting [5]) it was 0.161 µM; in data set [2], 191 nM. Also, the IC50 at 96 h in data set [3] was greater than 100000 nM.

`NCCCCN(Cc1cn2c(C(F)(F)F)cccc2n1)C1CCCc2cccnc21` (centres unmarked) [Example 8, N-(5,6,7,8-Tetrahydro-8-quinolinyl)-N-{[5-(trifluoromethyl)imidazo[1,2-a]pyridin-2-yl]methyl}-1,4-butanediamine]: the IC50 is 19.5 nM on CXCR4 receptor, less than 0.1 µM in data set [1] (setting [4]), 0.045 µM in data set [1] (setting [5]) and 174 nM in data set [2]. Moreover, in data set [3], the IC50 at 96 h was greater than 100000 nM.

`N#Cc1ccc2nc(CN(CCCCN)C3CCCc4cccnc43)cn2c1` (centres unmarked) [Example 9, 2-{[(4-Aminobutyl)(5,6,7,8-tetrahydro-8-quinolinyl)amino]methyl}imidazo [1,2-a]pyridine-6-carbonitrile]: the IC50 on CXCR4 receptor is 112 nM; in data set [1] (setting [4]), 0.1 to 0.5 µM; in data set [1] (setting [5]), 0.112 µM; in data set [2], 372 nM. For the same molecule, the IC50 at 96 h in data set [3] was greater than 100000 nM.

Turning to `NCCCCN(Cc1cn2cc(Cl)ccc2n1)C1CCCc2cccnc21` (centres unmarked) [Example 10, N-[(6-Chloroimidazo[1,2-a]pyridin-2-yl)methyl]-N-(5,6,7,8-tetrahydro-8-quinolinyl)-1,4-butanediamine], the IC50 was 29.5 nM on CXCR4 receptor, less than 0.1 µM in data set [1] (setting [4]), 0.041 µM in data set [1] (setting [5]) and 115 nM in data set [2]. The IC50 at 96 h in data set [3] was greater than 100000 nM.

With `NCCCCN(Cc1cn2cc(F)ccc2n1)C1CCCc2cccnc21` (centres unmarked) [Example 11, N-[(6-Fluoroimidazo[1,2-a]pyridin-2-yl)methyl]-N-(5,6,7,8-tetrahydro-8-quinolinyl)-1,4-butanediamine], the IC50 at CXCR4 receptor is 17 nM; in data set [1] (setting [4]), less than 0.1 µM; in data set [1] (setting [5]), 0.033 µM; in data set [2], 63.1 nM. In data set [3], the IC50 at 96 h was greater than 100000 nM.
